# According to patent US11959486B2, “Stable liquid formulation of AMG 416 (etelcalcetide)” (AMGEN INC., priority 2013, dated 2024):
# Assay: Concentration dependent stability in 25 mM succinate-buffered saline pH 4.5, HPLC purity, with Arrhenius extrapolation (Example 2)
# Format: physicochemical
# Conditions: for Degradation at 29 days, 40 C / Degradation at 29 days, RT: pH 4.5; for Predicted extent of degradation at 1 yr 5° C. / Predicted extent of degradation at 1 yr RT / Predicted extent of degradation at 2 yr 5° C. / Predicted extent of degradation at 2 yr RT: pH 4.5 SBS, from RT 29-day data
# Protocol: In this study, the stability of AMG 416 over a range of concentrations in succinate-buffered saline (pH 4.5) was investigated. The solution of […] AMG 416 from Example 1, supra, was diluted further with 200 μL of succinate-buffered saline (pH 4.5) to a nominal concentration of 200 mg/mL, which was serially diluted with succinate-buffered saline (pH 4.5) to 66, 20, 6.7, 2.2 and 0.67 mg/mL. The samples were kept at room temperature (i.e., about 25° C.) and aliquots were analyzed by HPLC at intervals up to 29 days. A second series of AMG 416 samples covering the concentration range 20 to 0.67 mg/mL were incubated at 40° C. and analyzed in the same manner.
# The room temperature 29-day data from Table 1 was extrapolated to the stated time period by assuming linear degradation kinetics. Room temperature data was extrapolated to 5° C. A 20° C. difference was assumed, equivalent to a 4-fold lower rate of degradation. Extrapolations were carried out using a simple application of the Arrhenius equation, where at 10° C. rise in temperature provides a 2-fold increase in reaction rate, assuming the same reaction mechanism and that activation energy for each relevant reaction is around 50 kJ/mol.
# Comparison of the data shown in Tables 1 and 2 allows assessment of temperature increase as a tool to predict the long-term stability of AMG 416 solutions.
smiles,measurement,setting,value
"CC(=O)N[C@H](CSSC[C@H](N)C(=O)O)C(=O)N[C@H](C)C(=O)N[C@H](CCCNC(=N)N)C(=O)N[C@H](CCCNC(=N)N)C(=O)N[C@H](CCCNC(=N)N)C(=O)N[C@H](C)C(=O)N[C@H](CCCNC(=N)N)C(N)=O [AMG 416, N-acetyl-D-cysteinyl-D-alanyl-D-arginyl-D-arginyl-D-arginyl-D-alanyl-D-arginamide disulfide with L-cysteine]","Degradation at 29 days, 40 C",0.67 mg/mL,5.0%
same,"Degradation at 29 days, RT",0.67 mg/mL,0.1%
same,Predicted extent of degradation at 1 yr 5° C.,0.67 mg/mL,0.3%
same,Predicted extent of degradation at 1 yr RT,0.67 mg/mL,1.4%
same,Predicted extent of degradation at 2 yr 5° C.,0.67 mg/mL,0.7%
same,Predicted extent of degradation at 2 yr RT,0.67 mg/mL,2.7%
same,"Degradation at 29 days, 40 C",2.2 mg/mL,5.0%
same,"Degradation at 29 days, RT",2.2 mg/mL,0.2%
same,Predicted extent of degradation at 1 yr 5° C.,2.2 mg/mL,0.7%
same,Predicted extent of degradation at 1 yr RT,2.2 mg/mL,2.6%
same,Predicted extent of degradation at 2 yr 5° C.,2.2 mg/mL,1.3%
same,Predicted extent of degradation at 2 yr RT,2.2 mg/mL,5.2%
same,"Degradation at 29 days, 40 C",6.7 mg/mL,9.4%
same,"Degradation at 29 days, RT",6.7 mg/mL,0.5%
same,Predicted extent of degradation at 1 yr 5° C.,6.7 mg/mL,1.7%
same,Predicted extent of degradation at 1 yr RT,6.7 mg/mL,7.0%
same,Predicted extent of degradation at 2 yr 5° C.,6.7 mg/mL,3.5%
same,Predicted extent of degradation at 2 yr RT,6.7 mg/mL,13.9%
same,"Degradation at 29 days, 40 C",20 mg/mL,26.7%
same,"Degradation at 29 days, RT",20 mg/mL,0.9%
same,Predicted extent of degradation at 1 yr 5° C.,20 mg/mL,2.6%
same,Predicted extent of degradation at 1 yr RT,20 mg/mL,10.4%
same,Predicted extent of degradation at 2 yr 5° C.,20 mg/mL,5.2%
same,Predicted extent of degradation at 2 yr RT,20 mg/mL,20.9%
same,Predicted extent of degradation at 1 yr 5° C.,66 mg/mL,25.0%
same,Predicted extent of degradation at 1 yr RT,66 mg/mL,>100%
same,Predicted extent of degradation at 2 yr 5° C.,66 mg/mL,50.1%
same,Predicted extent of degradation at 2 yr RT,66 mg/mL,>100%
